# Laboratory results from patent US9447075B2, “Pyridazine derivatives as EAAT2 activators” (The Brigham and Women's Hospital, Inc., priority 2011, dated 2016).
# Tests used:
# [1] = system: male C57/BL6 mice, focal cerebral ischemia; assay: Stroke model, transient middle cerebral artery occlusion (MCAO); format: in vivo, mouse; conditions: 24 hours after surgery
# Method: Compound 212320 was evaluated in the transient middle cerebral artery occlusion (MCAO), a well-characterized model of focal cerebral ischemia (experimental stroke). Adult male C57/BL6 mice (60-70 days old) were used. The internal carotid artery was occluded for 60 min. Following reperfusion, mice received 40 mg/kg of Compound 212320 by intraperitoneal injection. 24 hours after surgery, brains were removed and processed to determine infarct volume.
# Mice received 40 mg/kg Compound 212320 or vehicle intraperitoneally and 24 h after stroke, brains were processed to measure infarct volume.
# calcium channel L-type = assay: In vitro side effect profiling: calcium channel L-type; format: binding; conditions: 10 μM, duplicate
# Method: (§1) To assess Compound 212320's biological activity and selectivity, we performed an in vitro side effect profiling study. Seventy-one targets were tested at 10 μM in duplicate. These targets include neurotransmitter related receptors (30), steroids (2), ion channels (6), second messenger (1), prostaglandins (3), growth factors/hormones (4), brain/gut peptides (13), enzymes (5) and cytochrome p450 (7). […] Additionally, we performed a protein kinase profiling study. Compound 212320 was tested at 1 and 10 μM against 288 kinases. […] These studies indicate that Compound 212320 has high specificity and low side-effects/toxicity potential.
# [2] = system: primary dissociated neuron and astrocyte mixed cultures; assay: Glutamate-induced excitotoxicity in primary neuron and astrocyte mixed cultures (LDH assay, MAP2 immunostaining); format: cell-based; conditions: for MAP2-positive neurons left compared to the control: 0.1 mM glutamate
# [3] = system: male FVB mice, pilocarpine-induced SE; assay: Epilepsy model (pilocarpine-induced status epilepticus mouse model); format: in vivo
# Method: Eight- to ten-week-old male FVB mice (22-32 g) received the 1st and 2nd injections of Compound 212320 (at 40 mg/kg in the formulation described above) at 20 and 3 hr prior to induction of seizure with pilocarpine (290 mg/kg, i.p., Sigma). To reduce peripheral cholinergic effects without interfering with the development of SE and chronic seizures, mice received (−) scopolamine methyl nitrate (1.5 mg/kg, Sigma, St. Louis, Mo.) 30 min prior to pilocarpine injection. Control animals were injected with scopolamine followed by saline, instead of pilocarpine. Mice were then observed for 2 hr to record acute seizure severity and latency period. The Racine scale (see Racine, R. J. Modification of seizure activity by electrical stimulation. II. Motor seizure. Electroencephalogr Clin Neurophysiol 32, 281-294 (1972)) was used to rate seizure severity as previously described in Kong, Q., et al. Increased glial glutamate transporter EAAT2 expression reduces epileptogenic processes following pilocarpine-induced status epilepticus. Neurobiol Dis (2012)).
# Mice that reached SE and maintained tonic limbic extension for at least 60 min were kept and treated with compound daily for chronic seizure and pathological studies. The SE mice were fed with food soaked in a high sucrose (10%) saline solution to help recovery in the first 3 days after SE. Vehicle-treated SE mice and compound-treated SE littermates were carefully matched based on the body weight, seizure latency, seizure severity, and post-SE sickness.
# Chronic seizure activities were recorded by webcam (Logitech, Fremont, Calif.) and reviewed using Windows Live Movie Maker. Daylight periods (9 AM-5 PM) were selected for observations because previous literature indicates a higher frequency of spontaneous recurrent seizures during the day (see Kong, Q., et al. Increased glial glutamate transporter EAAT2 expression reduces epileptogenic processes following pilocarpine-induced status epilepticus. Neurobiol Dis (2012); and Shapiro, L. A., Figueroa-Aragon, S. & Ribak, C. E. Newly generated granule cells show rapid neuroplastic changes in the adult rat dentate gyrus during the first five days following pilocarpine-induced seizures. Eur J Neurosci 26, 583-592 (2007)). At 8 weeks post-SE, brain tissue was harvested from SE mice for cresyl violet staining
# Referring to FIG. 3, Compound 212320 reduced mortality rate, spontaneous recurrent seizure and neuronal death following pilocarpine-induced SE. Adult male FVB mice received Compound 212320 (i.p., 40 mg/kg), 3-hr later, were induced seizures with pilocarpine and were then observed for 2 hr to record acute seizure severity and latency period. The Racine scale was used to rate the seizure severity (described above). Mice that reached SE were treated with compound daily and at 4-week post-SE, were recorded chronic seizures for 2 weeks. A total of 15 independent experiments were performed, with a total of 153 vehicle-treated mice and 152 compound 7-4-treated mice. […] FIGS. 3(D-F) show spontaneous recurrent seizure. […] FIGS. 3(G-H) show hippocampal damage.
# EphA5 = EphA5 (Homo sapiens, UniProt P54756); assay: Protein kinase profiling: EphA5; format: biochemical; conditions: read-out: EphA5 inhibited
# Method: as §1
# EAAT2 = EAAT2 protein levels and glutamate uptake in primary dissociated neuron and astrocyte mixed cultures; format: cell-based; conditions: seven day-old mixed cultures, serum-free media, 48 hr
# Method: We next evaluated Compound 212320 in primary dissociated neuron and astrocyte mixed cultures. Seven day-old cultures were treated with Compound 212320 in serum-free media for 48 hr. As shown in FIG. 7A-B, Compound 212320 increased EAAT2 protein levels and glutamate uptake function.
# EphA5, sequence (P54756 25-1037, species assumed): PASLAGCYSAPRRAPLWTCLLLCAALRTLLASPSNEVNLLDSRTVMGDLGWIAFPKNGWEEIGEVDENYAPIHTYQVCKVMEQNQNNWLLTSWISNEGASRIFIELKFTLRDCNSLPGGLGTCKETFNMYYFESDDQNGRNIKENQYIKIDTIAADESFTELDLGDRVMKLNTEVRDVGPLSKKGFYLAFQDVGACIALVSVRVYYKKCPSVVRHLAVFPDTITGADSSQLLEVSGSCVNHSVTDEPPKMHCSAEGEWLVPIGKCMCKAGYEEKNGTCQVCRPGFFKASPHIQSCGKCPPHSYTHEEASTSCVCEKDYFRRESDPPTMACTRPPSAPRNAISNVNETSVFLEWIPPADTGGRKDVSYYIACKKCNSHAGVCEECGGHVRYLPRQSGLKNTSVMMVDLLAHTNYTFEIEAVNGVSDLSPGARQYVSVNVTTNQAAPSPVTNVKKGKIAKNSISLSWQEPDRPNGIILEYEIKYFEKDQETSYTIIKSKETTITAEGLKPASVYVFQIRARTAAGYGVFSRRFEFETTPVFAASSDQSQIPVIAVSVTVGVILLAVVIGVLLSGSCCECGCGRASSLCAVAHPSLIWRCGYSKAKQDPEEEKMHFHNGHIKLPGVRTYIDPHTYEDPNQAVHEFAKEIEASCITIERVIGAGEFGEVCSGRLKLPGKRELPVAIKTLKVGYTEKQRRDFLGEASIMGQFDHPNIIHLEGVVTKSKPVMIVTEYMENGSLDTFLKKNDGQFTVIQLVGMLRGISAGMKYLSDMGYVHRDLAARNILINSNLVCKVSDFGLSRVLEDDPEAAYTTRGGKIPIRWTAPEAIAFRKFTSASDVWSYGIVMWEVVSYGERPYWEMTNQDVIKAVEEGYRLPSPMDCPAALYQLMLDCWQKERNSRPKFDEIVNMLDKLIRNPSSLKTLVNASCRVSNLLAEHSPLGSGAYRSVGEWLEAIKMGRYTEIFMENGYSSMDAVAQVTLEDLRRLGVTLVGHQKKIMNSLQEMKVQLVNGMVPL
smiles,measurement,setting,value
Cc1ccccc1CSc1ccc(-c2ccccn2)nn1 [Compound 7-4],Decrease of infarct volume,"[1]; 40 mg/kg i.p. following reperfusion, vs vehicle",57%
same,Infarct volume,"[1]; 40 mg/kg i.p., n=6",6.8±1.6
same,inhibition on calcium channel L-type,calcium channel L-type,43%
same,Neuronal loss and degeneration (MAP2 immunostaining),[2]; FIG. 7D,significantly prevented
same,Toxicity in all assays,[2]; cell culture assays,did not cause any detectable toxicity
same,Glutamate-induced cytotoxicity (LDH assay),[2]; glutamate for 2 hr (FIG. 7C),significantly reduced
same,MAP2-positive neurons left compared to the control,[2]; pretreatment at 2 μM,40.4±6.4%
same,MAP2-positive neurons left compared to the control,[2]; pretreatment at 3 μM,60.9±7.3%
same,"Protective effects after pretreatment with dihydrokainic acid (DHK), an EAAT2 blocker",[2]; with DHK pretreatment,partially abolished
same,"Hippocampal damage (hilar neuronal loss, cresyl violet)",[3]; 8 weeks post-SE,significantly attenuated
same,Chronic seizure frequency (stage V spontaneous recurrent seizures),"[3]; daily treatment, recorded from 4-week post-SE for 2 weeks",significantly reduced
same,Mortality rate vs vehicle,[3]; day 7 post-SE,significantly decreased
same,Mortality rate vs vehicle,[3]; day 60 post-SE,significantly decreased
same,Latency to indicated seizure stage vs vehicle,"[3]; i.p., 40 mg/kg",not significantly different
same,Acute seizure severity (percentage of mice reaching each seizure stage) vs vehicle,"[3]; i.p., 40 mg/kg, within 2-hr after pilocarpine",not significantly different
same,Mortality rate vs vehicle,[3]; on the day that SE was induced,no obvious difference
same,inhibition at 10 µM,EphA5,44%
same,EAAT2 protein levels,EAAT2,increased
same,Glutamate uptake function,EAAT2,increased
